Test results reported in article PMC4046051, “Two M-T hook residues greatly improve the antiviral activity and resistance profile of the HIV-1 fusion inhibitor SC29EK” (Retrovirology, 2014).
Peptide text beside a SMILES is read from it.

Key:
Assay type in all cases: cell-based
HIV-1 NL4-3 D36S/V38M = experiment: Inhibition of T20-resistant HIV-1 variants: D36S/V38M; conditions: mean ± SD of three independent experiments, SD
Description: (§1) The inhibition of peptides on the HIV-1 entry was determined by single-cycle infection assay as described previously. Briefly, HIV-1 pseudovirus was generated by cotransfecting 293 T cells with an Env-expressing plasmid and a backbone plasmid pSG3^Δenv that encodes Env-defective, luciferase-expressing HIV-1 genome. The supernatants were harvested and filtered 48 h after transfection and 50% tissue culture infectious dose (TCID50) was determined in TZM-bl cells. The peptides were prepared with 3-fold dilutions and mixed with 100 TCID50 viruses and then incubated 1 h at room temperature. The mixture was added to TZM-bl cells (10^4/well) and incubated 48 h at 37°C. The luciferase activity was measured using luciferase assay reagents and a Luminescence Counter (Promega).

HIV-1 NL4-3 V38A = experiment: Inhibition of T20-resistant HIV-1 variants: V38A; conditions: mean ± SD of three independent experiments, SD
Description: as §1

HIV-1 NL4-3 I37T/N43K = experiment: Inhibition of T20-resistant HIV-1 variants: I37T/N43K; conditions: mean ± SD of three independent experiments
Description: as §1

HIV-1 NL4-3 WT = experiment: Inhibition of T20-resistant HIV-1 variants panel: WT; conditions: mean ± SD of three independent experiments, SD
Description: as §1

wild-type HIV-1NL4-3 = conditions: wild-type HIV-1NL4-3, 100 TCID50, TZM-bl cells, two days, luciferase; mean ± SD of three independent experiments; SD; read-out: IC50 Replication
Description: The inhibition of peptides on HIV-1 replication was determined by a molecular cloned wild-type HIV-1NL4–3. In brief, the virus stock was harvested and quantified 48 h post-transfection. 100 TCID50 viruses were used to infect TZM-bl cells in the presence or absence of serially diluted peptides. Two days post-infection, the cells were harvested and lysed in reporter lysis buffer and the luciferase activity was measured as described above.

HIV-1 NL4-3 V38M = experiment: Inhibition of T20-resistant HIV-1 variants: V38M; conditions: mean ± SD of three independent experiments, SD
Description: as §1

HIV-1 NL4-3 N43K = experiment: Inhibition of T20-resistant HIV-1 variants: N43K; conditions: mean ± SD of three independent experiments, SD
Description: as §1

HIV-1 NL4-3 Q40H = experiment: Inhibition of T20-resistant HIV-1 variants: Q40H; conditions: mean ± SD of three independent experiments, SD
Description: as §1

HIV-1 NL4-3 I37T = experiment: Inhibition of T20-resistant HIV-1 variants: I37T; conditions: mean ± SD of three independent experiments, SD
Description: as §1

HIV-1NL4-3 pseudovirus = conditions: 100 TCID50, TZM-bl cells, 48 h, luciferase, mean ± SD of three independent experiments, SD, read-out: IC50 Entry
Description: as §1

[1] = system: molecular clone of HIV-1NL4-3; experiment: In vitro selection of HIV-1 resistance in MT-4 cells; conditions: 1.5-2 fold escalating concentrations, 22 passages in 4 months
Description: The in vitro selection of HIV-1 resistance to peptide inhibitors was performed as described previously. Briefly, MT-4 cells were seeded at 1 × 10^4 in RPMI 1640 medium containing 10% fetal bovine serum on 12-well plates. The molecular clone of HIV-1NL4–3 was used to infect the cells in the presence or absence of diluted peptide inhibitors (SC29EK, MT-SC29EK, SC22EK and MT-SC22EK). The cells were incubated at 37°C with 5% CO2 until an extensive cytopathic effect was observed. The culture supernatants were harvested and used for next passage on fresh MT-4 cells with 1.5-2 fold increasing concentrations of peptide. Cells and supernatant were harvested at regular time points and stored at -80°C.

enfuvirtide
IC50 (HIV-1 NL4-3 D36S/V38M): 203 ± 12.6 nM
IC50 (HIV-1 NL4-3 V38A): 1840 ± 56.1 nM
IC50 (HIV-1 NL4-3 I37T/N43K): > 2250 nM
IC50 (HIV-1 NL4-3 WT): 52.1 ± 8.5 nM
IC50 (wild-type HIV-1NL4-3): 48.6 ± 1.2 nM
IC50 (HIV-1 NL4-3 V38M): 378 ± 41.7 nM
IC50 (HIV-1 NL4-3 N43K): 367 ± 47.4 nM
IC50 (HIV-1 NL4-3 Q40H): 1320 ± 92.3 nM
IC50 (HIV-1 NL4-3 I37T): 552 ± 123 nM

CC[C@H](C)[C@H](NC(=O)[C@H](CCC(=O)O)NC(=O)[C@H](CCCNC(=N)N)NC(=O)[C@H](CCC(=O)O)NC(=O)[C@H](Cc1c[nH]c2ccccc12)NC(=O)[C@@H](NC(=O)[C@H](CCC(=O)O)NC(=O)[C@H](Cc1c[nH]c2ccccc12)NC(=O)[C@H](CO)NC(C)=O)[C@@H](C)O)C(=O)N[C@@H](CCC(=O)O)C(=O)N[C@@H](CC(N)=O)C(=O)N[C@@H](Cc1ccc(O)cc1)C(=O)N[C@H](C(=O)N[C@@H](CCCNC(=N)N)C(=O)N[C@@H](CCC(N)=O)C(=O)N[C@H](C(=O)N[C@@H](Cc1ccc(O)cc1)C(=O)N[C@@H](CCCNC(=N)N)C(=O)N[C@H](C(=O)N[C@@H](CC(C)C)C(=O)N[C@@H](CCC(=O)O)C(=O)N[C@@H](CCC(=O)O)C(=O)N[C@@H](CO)C(=O)N[C@@H](CCC(N)=O)C(=O)N[C@@H](CCC(=O)O)C(=O)N[C@@H](CCC(N)=O)C(=O)N[C@@H](CCC(N)=O)C(=O)N[C@@H](CC(=O)O)C(=O)N[C@@H](CCCNC(=N)N)C(=O)N[C@@H](CC(N)=O)C(=O)N[C@@H](CCC(=O)O)C(=O)N[C@@H](CCCNC(=N)N)C(=O)N[C@@H](CC(=O)O)C(=O)N[C@@H](CC(C)C)C(=O)N[C@@H](CC(C)C)C(=O)N[C@@H](CCC(=O)O)C(N)=O)[C@@H](C)CC)[C@@H](C)CC)[C@@H](C)O [SFT, Sifuvirtide] (Ac-SWETWEREIENYTRQIYRILEESQEQQDRNERDLLE-NH2)
IC50 (HIV-1NL4-3 pseudovirus): 2.6 ± 0.1 nM
IC50 (wild-type HIV-1NL4-3): 1.5 ± 0.1 nM

CC[C@H](C)[C@H](NC(=O)[C@H](CC(C)C)NC(=O)[C@H](CCC(=O)O)NC(=O)[C@H](CCC(=O)O)NC(=O)[C@@H](NC(=O)[C@H](CCCCN)NC(=O)[C@H](CCCCN)NC(=O)[C@@H](NC(=O)[C@H](Cc1ccc(O)cc1)NC(=O)[C@H](CCC(=O)O)NC(=O)[C@H](CCC(=O)O)NC(=O)[C@@H](NC(=O)[C@H](CCCCN)NC(=O)[C@H](CCCCN)NC(=O)[C@H](CC(=O)O)NC(=O)[C@H](Cc1c[nH]c2ccccc12)NC(=O)[C@H](CCC(=O)O)NC(=O)[C@H](CCC(=O)O)NC(=O)[C@H](Cc1c[nH]c2ccccc12)NC(=O)[C@@H](NC(=O)[C@H](CCSC)NC(C)=O)[C@@H](C)O)[C@@H](C)CC)[C@@H](C)O)[C@@H](C)CC)C(=O)N[C@@H](CCCCN)C(=O)N[C@@H](CCCCN)C(=O)N[C@@H](CO)C(N)=O [MT-SC22EK] (Ac-MTWEEWDKKIEEYTKKIEELIKKS-NH2)
IC50 (HIV-1NL4-3 pseudovirus): 2.1 ± 0.2 nM
IC50 (wild-type HIV-1NL4-3): 1.1 ± 0.1 nM
peptide concentration reached during in vitro selection of resistant virus [1]: ~100 nM

CC[C@H](C)[C@H](NC(=O)[C@H](C)NC(=O)[C@H](CCCNC(=N)N)NC(=O)[C@H](CC(=O)O)NC(=O)[C@H](Cc1c[nH]c2ccccc12)NC(=O)[C@H](C)NC(=O)[C@H](CCC(=O)O)NC(=O)[C@H](Cc1c[nH]c2ccccc12)NC(=O)[C@@H](NC(=O)[C@@H](NC(C)=O)[C@@H](C)O)[C@@H](C)O)C(=O)N[C@@H](C)C(=O)N[C@@H](CCC(=O)O)C(=O)N[C@@H](Cc1ccc(O)cc1)C(=O)N[C@@H](C)C(=O)N[C@@H](C)C(=O)N[C@@H](CCCNC(=N)N)C(=O)N[C@H](C(=O)N[C@@H](CCC(=O)O)C(=O)N[C@@H](C)C(=O)N[C@@H](CC(C)C)C(=O)N[C@H](C(=O)N[C@@H](CCCNC(=N)N)C(=O)N[C@@H](C)C(=O)N[C@@H](C)C(=O)N[C@@H](CCC(N)=O)C(=O)N[C@@H](CCC(=O)O)C(=O)N[C@@H](CCC(N)=O)C(=O)N[C@@H](CCC(N)=O)C(=O)N[C@@H](CCC(=O)O)C(=O)N[C@@H](CCCCN)C(=O)N[C@@H](CC(N)=O)C(=O)N[C@@H](CCC(=O)O)C(=O)N[C@@H](C)C(=O)N[C@@H](C)C(=O)N[C@@H](CC(C)C)C(=O)N[C@@H](CCCNC(=N)N)C(=O)N[C@@H](CCC(=O)O)C(=O)N[C@@H](CC(C)C)C(N)=O)[C@@H](C)CC)[C@@H](C)CC [T2635]
IC50 (HIV-1NL4-3 pseudovirus): 1.1 ± 0.1 nM

CC[C@H](C)[C@H](NC(=O)[C@H](CCC(=O)O)NC(=O)[C@H](CCCNC(=N)N)NC(=O)[C@H](CCC(=O)O)NC(=O)[C@H](Cc1c[nH]c2ccccc12)NC(=O)[C@H](CCC(=O)O)NC(=O)[C@H](CCSC)NC(=O)[C@H](Cc1c[nH]c2ccccc12)NC(=O)[C@@H](NC(=O)[C@H](CCSC)NC(=O)[C@H](CCC(=O)O)NC(=O)[C@H](CC(N)=O)NC(=O)[C@H](Cc1c[nH]c2ccccc12)NC(=O)[C@H](CCC(=O)O)NC(=O)[C@@H](NC(C)=O)C(C)C)[C@@H](C)O)C(=O)N[C@@H](CCC(=O)O)C(=O)N[C@@H](CC(N)=O)C(=O)N[C@@H](Cc1ccc(O)cc1)C(=O)N[C@H](C(=O)N[C@@H](CCCCN)C(=O)N[C@@H](CC(C)C)C(=O)N[C@H](C(=O)N[C@@H](Cc1ccc(O)cc1)C(=O)N[C@@H](CCCCN)C(=O)N[C@H](C(=O)N[C@@H](CC(C)C)C(=O)N[C@@H](CCC(=O)O)C(=O)N[C@@H](CCC(=O)O)C(=O)N[C@@H](CO)C(=O)N[C@@H](CCC(N)=O)C(=O)N[C@@H](CCC(=O)O)C(=O)N[C@@H](CCC(N)=O)C(N)=O)[C@@H](C)CC)[C@@H](C)CC)[C@@H](C)O [CP32M] (Ac-VEWNEMTWMEWEREIENYTKLIYKILEESQEQ-NH2)
IC50 (HIV-1NL4-3 pseudovirus): 1.8 ± 0.2 nM
IC50 (wild-type HIV-1NL4-3): 1 ± 0.2 nM
